The source of these data is patent publication US5380651A, “Method of determining odorant compounds and antagonists of odorants using a primary culture of olfactory neurons” (The Johns Hopkins University, priority 1993, dated 1995).

Entries after “also recorded” stand apart in the source; their conditions may differ.

Test [1] deals with olfactory neurons (primary cultures). Nature of the test: effect of substrate matrix substances on morphology and plating efficiency of olfactory neurons. It counts as cell-based, rat. As to conditions: for process (neurite) outgrowth / plating efficiency: coated slides, phase contrast and anti-vimentin immunofluorescence. On the procedure:
To determine the role of substrate matrix substances on plating efficiency and on cellular selection, a number of different substrates were tested.
Two chamber slides were pretreated in a number of ways. For laminin coating, 1 ml of MDV containing 25 ug/ml laminin was plated onto glass two-chamber slides overnight at 37° C.; before use, the slides were rinsed with MDV. For fibronectin, slides were treated with a solution containing 1 ml of MDV containing 20 ug/ml fibronectin (Collaborative Research), incubated overnight at 37° C., and rinsed with MDV prior to use. For polyornithine (PORN, Sigma Chemicals), a solution at a concentration of 1 mg/ml PORN in deionized distilled water was added to slides, incubated 1 hr at 37° C., rinsed twice with deionized distilled water, and rinsed once with MDV prior to use. When laminin was used on PORN-treated slides, slides were treated with PORN and then laminin in the usual manner. Coating of slides with poly-D-lysine was performed analogous to treatment with polyornithine. Heparan sulfate was diluted in MDV to a concentration of 10 ug/ml and 1 ml was placed on a slide, maintained overnight at 37° C., and rinsed with deionized distilled water prior to use. Collagen (Gibco) or collagen IV (Collaborative Research) was prepared as a 50 ug/ml solution in deionized distilled water and 1 ml of this solution utilized per slide. In the case of collagen, the solution was allowed to air dry. Collagen IV was maintained overnight at room temperature, aspirated, air dried and then rinsed twice with deionized distilled water prior to use. When laminin was used with collagen IV, collagen IV was prepared as described, and laminin was subsequently added in the usual manner. Matrigel (Collaborative Research) was utilized according to manufacturer's instructions.
Primary cultures were prepared as describe above and plated onto a number of different substrates and examined by phase contrast as well as immunofluorescence with antivimentin antisera (FIG. 6).
Matrigel was also examined as a substrate (FIG. 7).

Test [2] deals with NG-108 cells. Nature of the test: cyclic AMP levels (RIA) in NG-108 cells exposed to odorant. It counts as cell-based. The following applies: similar treatment.
Test [3] deals with Primary olfactory neurons. As to the kind of experiment: cyclic AMP levels (RIA) in primary olfactory neurons exposed to odorant. The following applies: 10 uM IBMP. The class given is cell-based, rat. The text has this: Olfactory tissue from neonatal rats was collected, minced, dissociated in enzymes and plated on chamber slides pretreated with laminin as described below.
Approximately 3 litters or 28-32 pups were used per prep. The 2-3 day old rat pups were sacrificed by decapitation, and olfactory tissue dissected and immediately placed in modified Eagle's medium (MEM) containing 4.8 g/l of HEPES buffer, designated MEM-AIR. The turbinates were transferred twice through fresh MEM-AIR to minimize contamination. Tissue was then centrifuged at 700×g for 7 min. After the supernatant was decanted, the tissue was minced to achieve tissue fragments of approximately 1 mm in size, resuspended in MEM-AIR and centrifuged at 700×g for 7 min. Tissue was then placed in 30 ml of MEM-AIR containing 1% (w/v) BSA, RIA grade (Sigma, St. Louis, Mo.), 1 mg/ml hyaluronidase (Sigma), 50 ug/ml DNAse (Sigma), 1 mg/ml collagenase (Worthington Biochemicals, Freehold, N.J.), and 5 mg/ml dispase (Boehringer-Mannheim Biochemicals, Indianapolis, Ind.), and incubated with agitation for 1 hr at 37° C. At the end of incubation, the cell suspension was triturated 10 times with a 10 ml plastic piper and passed through a 150 micron wire mesh. The cell suspension was then centrifuged at 500×g for 5 min. […]

The subject of test [4] is olfactory neurons (primary cultures). As to the kind of experiment: effect of NGF on olfactory neuron survival and neurite extension. It counts as cell-based, rat. On the procedure: Approximately 3 litters or 28-32 pups were used per prep. The 2-3 day old rat pups were sacrificed by decapitation, and olfactory tissue dissected and immediately placed in modified Eagle's medium (MEM) containing 4.8 g/l of HEPES buffer, designated MEM-AIR. The turbinates were transferred twice through fresh MEM-AIR to minimize contamination. Tissue was then centrifuged at 700×g for 7 min. After the supernatant was decanted, the tissue was minced to achieve tissue fragments of approximately 1 mm in size, resuspended in MEM-AIR and centrifuged at 700×g for 7 min. Tissue was then placed in 30 ml of MEM-AIR containing 1% (w/v) BSA, RIA grade (Sigma, St. Louis, Mo.), 1 mg/ml hyaluronidase (Sigma), 50 ug/ml DNAse (Sigma), 1 mg/ml collagenase (Worthington Biochemicals, Freehold, N.J.), and 5 mg/ml dispase (Boehringer-Mannheim Biochemicals, Indianapolis, Ind.), and incubated with agitation for 1 hr at 37° C. At the end of incubation, the cell suspension was triturated 10 times with a 10 ml plastic piper and passed through a 150 micron wire mesh. The cell suspension was then centrifuged at 500×g for 5 min. The supernatant was aspirated and the cell pellet resuspended in plating medium composed of modified Eagle's medium containing D-valine (MDV, Gibco, Grand Island, N.Y.) containing 15% (v/v) dialyzed fetal calf serum (dFCS, Gibco), 5% (v/v) NU serum (Collaborative Research, Bedford, Mass.), 10 uM cytosine arabinoside (ara C) and 25 ng/ml nerve growth factor (NGF, Collaborative Research). After resuspension, cells were successively filtered through 50 micron and 10 micron nylon mesh filters (Small Parts, Miami, Fla.), to remove any remaining undigested clumps of cells and epithelial cells. Cells were plated at a density of 1×10^6 cells per cm^2 into tissue culture dish (Falcon, Lincoln Park, N.J.) or Labtek tissue culture slides (Nunc, Naperville, Ill.) coated with MDV containing laminin at 25 ug/ml (Collaborative Research). Cultures were placed in a humidified 37° C. incubator receiving 5% CO2. […]

The mark [5] stands for this setting: without NGF vs 25 ng/ml NGF, by 3 days in culture.

For fibronectin, the “process (neurite) outgrowth” value in test [1] is “the processes are shorter”.
Consider laminin, for which the “plating efficiency” value in test [1] is reported as “optimal plating efficiency”. Also, in test [1] (duplicate cell suspensions, laminin vs matrigel), the “neurite extension and aggregation of cells” value is listed as “cells extend neurites in a random fashion, with no tendency to reaggregate”.
Regarding collagen, in test [1], the “plating efficiency” value is reported as “somewhat better plating efficiency than poly-D-lysine, polyornithine or heparan-sulfate” and the “process (neurite) outgrowth” value is on record as “process outgrowth is still stunted”.
For the molecule `COc1nccnc1CC(C)C` [IBMP, 2-isobutyl-3-methoxypyrazine], the “change of cyclic AMP levels” value in test [2] is “does not alter cyclic AMP levels”. For the same molecule, the “change of intracellular cyclic AMP levels” value in test [3] is given as “rapid, transient rise in intracellular cyclic AMP levels”.

B1: NGF: nerve growth factor (NGF, Collaborative Research) (protein, UniProt P01139 122-241, looked up)
Beta-nerve growth factor: SSTHPVFHMGEFSVCDSVSVWVGDKTTATDIKGKEVTVLAEVNINNSVFRQYFFETKCRASNPVESGCRGIDSKHWNSYCTTTHTFVKALTTDEKQAAWRFIRIDTACVCVLSRKATRRG
modifications: Beta-nerve growth factor
On to B1, for which the “role in olfactory neuronal survival and neurite extension” value in test [4] (25 ng/ml NGF in medium) is “necessary for survival of olfactory neurons; also recorded: affects both olfactory neuronal survival and neurite extension in culture”. In test [4] (setting [5]), the “decrease of cell viability in cells maintained without NGF” value was “approximately 85%” and the “process extension in cells maintained without NGF” value is “lose process extension”.
